# Experimental data published in ChEMBL document CHEMBL1201861, “Genomics of Drug Sensitity in Cancer screening data, Wellcome Trust Sanger Institute”.
# Experiments:
# Assay in all cases: cells
# [1] = tested on: TCC-SUP; assay type: functional, cell-based; conditions: Homo sapiens;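 note: growth inhibition of TCC-SUP cells, read out with a cell viability assay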
# Description: SANGER: Inhibition of human TCCSUP cell growth in a cell viability assay.
# [2] = tested on: NCI-H1563; assay type: functional, cell-based; conditions: Homo sapiens;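 note: growth inhibition of human NCI-H1563 cells, read out with a cell viability assay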
# Description: SANGER: Inhibition of human NCI-H1563 cell growth in a cell viability assay.
# [3] = tested on: HCC38; assay type: functional, cell-based; conditions: Homo sapiens;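 note: cell viability assay on the human HCC38 cell line, with IC50 marking the concentration that inhibits cell growth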
# Description: SANGER: Inhibition of human HCC38 cell growth in a cell viability assay.
# [4] = tested on: MeWo; assay type: functional, cell-based; conditions: Homo sapiens;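 note: growth inhibition of MeWo cells, determined by a cell viability readout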
# Description: SANGER: Inhibition of human Mewo cell growth in a cell viability assay.
# [5] = tested on: KYSE-70 cell line; assay type: functional, cell-based; conditions: Homo sapiens;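 note: cell viability assay read-out, with IC50 expressing suppression of KYSE-70 cell growth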
# Description: SANGER: Inhibition of human KYSE-70 cell growth in a cell viability assay.
# [6] = tested on: D-336MG; assay type: functional, cell-based, Homo sapiens; conditions: Homo sapiens, D-336MG
# Description: SANGER: Inhibition of human D-336MG cell growth in a cell viability assay.
# [7] = tested on: MEL-HO; assay type: functional, cell-based; conditions: Homo sapiens
# Description: SANGER: Inhibition of human MEL-HO cell growth in a cell viability assay.
# [8] = tested on: PANC-08-13; assay type: functional, cell-based; conditions: Homo sapiens;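 note: cell growth inhibition, measured with a cell viability assay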
# Description: SANGER: Inhibition of human PANC-08-13 cell growth in a cell viability assay.
# [9] = tested on: SW626; assay type: functional, cell-based; conditions: Homo sapiens;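 note: growth inhibition of SW626 cells, measured with a cell viability assay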
# Description: SANGER: Inhibition of human SW626 cell growth in a cell viability assay.
# [10] = tested on: LCLC-103H cell line; assay type: functional, cell-based; conditions: Homo sapiens
# Description: SANGER: Inhibition of human LCLC-103H cell growth in a cell viability assay.
# [11] = tested on: HCC1806; assay type: functional, cell-based; conditions: Homo sapiens;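 note: growth inhibition of the cancer cell line, determined with a cell viability assay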
# Description: SANGER: Inhibition of human HCC1806 cell growth in a cell viability assay.
# [12] = tested on: NCI-H510A; assay type: functional, cell-based, Homo sapiens; conditions: Homo sapiens, NCI-H510A;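 note: growth inhibition of NCI-H510A cells, read out with a cell viability assay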
# Description: SANGER: Inhibition of human NCI-H510A cell growth in a cell viability assay.
# [13] = tested on: NCI-H1993; assay type: functional, cell-based; conditions: Homo sapiens;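 note: growth inhibition of the cancer cell line, assessed with a cell viability assay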
# Description: SANGER: Inhibition of human NCI-H1993 cell growth in a cell viability assay.
# [14] = tested on: MKN-28; assay type: functional, cell-based; conditions: Homo sapiens;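 note: cell viability assay read-out, IC50 reflects suppression of growth of human MKN-28 cells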
# Description: SANGER: Inhibition of human MKN28 cell growth in a cell viability assay.
# [15] = tested on: NCI-H460; assay type: functional, cell-based; conditions: Homo sapiens;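 note: cell viability assay scoring growth inhibition of human NCI-H460 cells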
# Description: SANGER: Inhibition of human NCI-H460 cell growth in a cell viability assay.
# [16] = tested on: HT55; assay type: functional, cell-based; conditions: Homo sapiens;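 note: cell viability readout measuring growth inhibition of human HT55 cells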
# Description: SANGER: Inhibition of human HT55 cell growth in a cell viability assay.
# [17] = tested on: JEG-3; assay type: functional, cell-based; conditions: Homo sapiens;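 note: growth inhibition of human JEG-3 cells, read out with a cell viability assay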
# Description: SANGER: Inhibition of human JEG-3 cell growth in a cell viability assay.
# [18] = tested on: NCI-H630; assay type: functional, cell-based; conditions: Homo sapiens;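 note: growth inhibition of NCI-H630 cells, read out with a cell viability assay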
# Description: SANGER: Inhibition of human NCI-H630 cell growth in a cell viability assay.
# [19] = tested on: HTC-C3; assay type: functional, cell-based; conditions: Homo sapiens;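 note: inhibition of cell growth, read out with a cell viability assay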
# Description: SANGER: Inhibition of human HTC-C3 cell growth in a cell viability assay.
# [20] = tested on: EGI-1; assay type: functional, cell-based; conditions: Homo sapiens;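 note: cell viability readout used to gauge growth inhibition of EGI-1 cells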
# Description: SANGER: Inhibition of human EGI-1 cell growth in a cell viability assay.
# [21] = tested on: MG-63; assay type: functional, cell-based; conditions: Homo sapiens;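 note: growth inhibition of human MG-63 cells, read out with a cell viability assay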
# Description: SANGER: Inhibition of human MG-63 cell growth in a cell viability assay.
# [22] = tested on: LK-2; assay type: functional, cell-based; conditions: Homo sapiens;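 note: growth inhibition of LK-2 cells, read out with a viability assay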
# Description: SANGER: Inhibition of human LK-2 cell growth in a cell viability assay.
# [23] = tested on: RPMI-2650; assay type: functional, cell-based; conditions: Homo sapiens
# Description: SANGER: Inhibition of human RPMI-2650 cell growth in a cell viability assay.
# [24] = tested on: MEL-JUSO; assay type: functional, cell-based; conditions: Homo sapiens;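 note: growth inhibition of human MEL-JUSO cells, read out with a cell viability assay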
# Description: SANGER: Inhibition of human MEL-JUSO cell growth in a cell viability assay.
# [25] = tested on: BHY; assay type: functional, cell-based; conditions: Homo sapiens;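 note: cell growth inhibition read out by a viability assay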
# Description: SANGER: Inhibition of human BHY cell growth in a cell viability assay.
# [26] = tested on: T98G; assay type: functional, cell-based; conditions: Homo sapiens;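 note: growth inhibition of T98G cells, read out by a cell viability assay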
# Description: SANGER: Inhibition of human T98G cell growth in a cell viability assay.
# [27] = tested on: HCC70; assay type: functional, cell-based; conditions: Homo sapiens;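 note: cell viability assay measuring how strongly the compound suppresses proliferation of HCC70 cells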
# Description: SANGER: Inhibition of human HCC70 cell growth in a cell viability assay.
# [28] = tested on: GAMG; assay type: functional, cell-based; conditions: Homo sapiens;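 note: cell growth inhibition measured by a viability assay in the GAMG human cell line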
# Description: SANGER: Inhibition of human GAMG cell growth in a cell viability assay.
# [29] = tested on: BT-20; assay type: functional, cell-based; conditions: Homo sapiens;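 note: cell viability assay measuring suppression of growth in human BT-20 cells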
# Description: SANGER: Inhibition of human BT-20 cell growth in a cell viability assay.
# [30] = tested on: VMRC-RCZ; assay type: functional, cell-based; conditions: Homo sapiens;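 note: growth inhibition measured with a cell viability assay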
# Description: SANGER: Inhibition of human VMRC-RCZ cell growth in a cell viability assay.
# [31] = tested on: SW-620; assay type: functional, cell-based; conditions: Homo sapiens;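 note: growth inhibition of human SW-620 cells, measured by a cell viability assay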
# Description: SANGER: Inhibition of human SW620 cell growth in a cell viability assay.
# [32] = tested on: SAS; assay type: functional, cell-based; conditions: Homo sapiens;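 note: growth inhibition of SAS cells, read out with a cell viability assay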
# Description: SANGER: Inhibition of human SAS cell growth in a cell viability assay.
# [33] = tested on: NCI-H727; assay type: functional, cell-based; conditions: Homo sapiens;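 note: growth inhibition of human NCI-H727 cells, read out with a cell viability assay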
# Description: SANGER: Inhibition of human NCI-H727 cell growth in a cell viability assay.
# [34] = tested on: Hs-578T; assay type: functional, cell-based; conditions: Homo sapiens
# Description: SANGER: Inhibition of human Hs-578-T cell growth in a cell viability assay.
# [35] = tested on: M059J; assay type: functional, cell-based; conditions: Homo sapiens;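 note: growth inhibition of M059J cells, read out with a cell viability assay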
# Description: SANGER: Inhibition of human M059J cell growth in a cell viability assay.
# [36] = tested on: NY; assay type: functional, cell-based; conditions: Homo sapiens
# Description: SANGER: Inhibition of human NY cell growth in a cell viability assay.
# [37] = tested on: HPAF-II; assay type: functional, cell-based; conditions: Homo sapiens;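 note: growth inhibition of HPAF-II cells, read out with a cell viability assay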
# Description: SANGER: Inhibition of human HPAF-II cell growth in a cell viability assay.
# [38] = tested on: G-401; assay type: functional, cell-based; conditions: Homo sapiens
# Description: SANGER: Inhibition of human G-401 cell growth in a cell viability assay.
# [39] = tested on: CAL-12T; assay type: functional, cell-based; conditions: Homo sapiens;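 note: growth inhibition of human CAL-12T cells, read out with a cell viability assay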
# Description: SANGER: Inhibition of human CAL-12T cell growth in a cell viability assay.
# [40] = tested on: AGS; assay type: functional, cell-based; conditions: Homo sapiens;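 note: growth inhibition of AGS cells, determined with a cell viability assay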
# Description: SANGER: Inhibition of human AGS cell growth in a cell viability assay.
# [41] = tested on: SNU-423; assay type: functional, cell-based; conditions: Homo sapiens
# Description: SANGER: Inhibition of human SNU-423 cell growth in a cell viability assay.
# [42] = tested on: Ca9-22; assay type: functional, cell-based; conditions: Homo sapiens;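 note: growth inhibition of Ca9-22 cells, read out with a cell viability assay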
# Description: SANGER: Inhibition of human Ca9-22 cell growth in a cell viability assay.
# [43] = tested on: G-402; assay type: functional, cell-based; conditions: Homo sapiens
# Description: SANGER: Inhibition of human G-402 cell growth in a cell viability assay.
# [44] = tested on: SK-MEL-28; assay type: functional, cell-based; conditions: Homo sapiens;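 note: growth inhibition of human SK-MEL-28 cells, read out with a cell viability assay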
# Description: SANGER: Inhibition of human SK-MEL-28 cell growth in a cell viability assay.
# [45] = tested on: NUGC-3; assay type: functional, cell-based; conditions: Homo sapiens;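 note: growth inhibition of human NUGC-3 cells, read out with a cell viability assay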
# Description: SANGER: Inhibition of human NUGC-3 cell growth in a cell viability assay.
# [46] = tested on: GP5d; assay type: functional, cell-based; conditions: Homo sapiens;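 note: growth inhibition of human GP5d cells, read out with a cell viability assay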
# Description: SANGER: Inhibition of human GP5d cell growth in a cell viability assay.
# [47] = tested on: PC-14; assay type: functional, cell-based; conditions: Homo sapiens;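 note: cell viability assay measuring inhibition of PC-14 cell growth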
# Description: SANGER: Inhibition of human PC-14 cell growth in a cell viability assay.
# [48] = tested on: MDA-MB-361; assay type: functional, cell-based; conditions: Homo sapiens
# [49] = tested on: HEC-1; assay type: functional, cell-based; conditions: Homo sapiens;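 note: growth inhibition of the cell line, read out with a cell viability assay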
# Description: SANGER: Inhibition of human HEC-1 cell growth in a cell viability assay.
# [50] = tested on: KP-N-YN; assay type: functional, cell-based; conditions: Homo sapiens;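 note: growth inhibition of KP-N-YN cells, read out with a cell viability assay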
# Description: SANGER: Inhibition of human KP-N-YN cell growth in a cell viability assay.
# [51] = tested on: EC-GI-10; assay type: functional, cell-based, Homo sapiens; conditions: Homo sapiens, EC-GI-10
# Description: SANGER: Inhibition of human EC-GI-10 cell growth in a cell viability assay.
# [52] = tested on: HT-3; assay type: functional, cell-based; conditions: Homo sapiens;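 note: growth inhibition measured with a cell viability readout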
# Description: SANGER: Inhibition of human HT-3 cell growth in a cell viability assay.
compound,measurement,setting,value
NC(=O)c1ccc(N(C(N)=O)c2c(F)cccc2F)nc1-c1ccc(F)cc1F [VX-702],IC50,[1],> 2000 nM
same,IC50,[2],> 2000 nM
same,IC50,[3],> 2000 nM
same,IC50,[4],> 2000 nM
same,IC50,[5],> 2000 nM
same,IC50,[6],> 2000 nM
same,IC50,[7],> 2000 nM
same,IC50,[8],> 2000 nM
same,IC50,[9],> 2000 nM
same,IC50,[10],> 2000 nM
same,IC50,[11],> 2000 nM
same,IC50,[12],> 2000 nM
same,IC50,[13],> 2000 nM
same,IC50,[14],> 2000 nM
same,IC50,[15],> 2000 nM
same,IC50,[16],> 2000 nM
same,IC50,[17],> 2000 nM
same,IC50,[18],> 2000 nM
same,IC50,[19],> 2000 nM
same,IC50,[20],> 2000 nM
same,IC50,[21],> 2000 nM
same,IC50,[22],> 2000 nM
same,IC50,[23],> 2000 nM
same,IC50,[24],> 2000 nM
same,IC50,[25],> 2000 nM
same,IC50,[26],> 2000 nM
same,IC50,[27],> 2000 nM
same,IC50,[28],> 2000 nM
same,IC50,[29],> 2000 nM
same,IC50,[30],> 2000 nM
same,IC50,[31],> 2000 nM
same,IC50,[32],> 2000 nM
same,IC50,[33],> 2000 nM
same,IC50,[34],> 2000 nM
same,IC50,[35],> 2000 nM
same,IC50,[36],> 2000 nM
same,IC50,[37],> 2000 nM
same,IC50,[38],> 2000 nM
same,IC50,[39],> 2000 nM
same,IC50,[40],153 nM
same,IC50,[41],> 2000 nM
same,IC50,[42],> 2000 nM
same,IC50,[43],> 2000 nM
same,IC50,[44],> 2000 nM
same,IC50,[45],> 2000 nM
same,IC50,[46],> 2000 nM
same,IC50,[47],> 2000 nM
same,IC50,[48],> 2000 nM
same,IC50,[49],> 2000 nM
same,IC50,[50],> 2000 nM
same,IC50,[51],> 2000 nM
same,IC50,[52],> 2000 nM
NC(=O)Nc1cc(-c2cccc(F)c2)sc1C(=O)N[C@H]1CCCNC1 [AZD-7762],IC50,[1],> 2000 nM
same,IC50,[2],470 nM
same,IC50,[3],750 nM
same,IC50,[4],304 nM
same,IC50,[5],> 2000 nM
same,IC50,[6],421 nM
same,IC50,[7],979 nM
same,IC50,[8],661 nM
same,IC50,[9],506 nM
same,IC50,[10],980 nM
same,IC50,[11],40.2 nM
same,IC50,[12],246 nM
same,IC50,[13],> 2000 nM
same,IC50,[14],> 2000 nM
same,IC50,[15],1530 nM
same,IC50,[16],1610 nM
same,IC50,[17],> 2000 nM
same,IC50,[18],1790 nM
same,IC50,[19],835 nM
same,IC50,[20],1800 nM
same,IC50,[21],> 2000 nM
same,IC50,[22],1460 nM
same,IC50,[23],> 2000 nM
same,IC50,[24],131 nM
same,IC50,[25],688 nM
same,IC50,[26],246 nM
same,IC50,[27],307 nM
same,IC50,[28],386 nM
same,IC50,[29],1720 nM
same,IC50,[30],906 nM
same,IC50,[31],662 nM
same,IC50,[32],1270 nM
same,IC50,[33],698 nM
same,IC50,[34],453 nM
same,IC50,[35],1070 nM
same,IC50,[36],> 2000 nM
same,IC50,[37],970 nM
same,IC50,[38],> 2000 nM
same,IC50,[39],433 nM
same,IC50,[40],582 nM
same,IC50,[41],535 nM
same,IC50,[42],541 nM
same,IC50,[43],64.6 nM
same,IC50,[44],> 2000 nM
same,IC50,[45],> 2000 nM
same,IC50,[46],412 nM
same,IC50,[47],417 nM
same,IC50,[48],299 nM
same,IC50,[49],814 nM
same,IC50,[50],349 nM
same,IC50,[51],1780 nM
same,IC50,[52],490 nM
CC1=C(/C=C/C(C)=C/C=C/C(C)=C/C(=O)O)C(C)(C)CCC1 [TRETINOIN],IC50,[1],> 10000 nM
same,IC50,[2],> 10000 nM
same,IC50,[3],> 10000 nM
same,IC50,[4],> 10000 nM
same,IC50,[5],> 10000 nM
same,IC50,[6],> 10000 nM
same,IC50,[7],> 10000 nM
same,IC50,[8],> 10000 nM
same,IC50,[9],> 10000 nM
same,IC50,[10],> 10000 nM
same,IC50,[11],729 nM
same,IC50,[12],> 10000 nM
same,IC50,[13],> 10000 nM
same,IC50,[14],> 10000 nM
same,IC50,[15],> 10000 nM
same,IC50,[16],> 10000 nM
same,IC50,[17],> 10000 nM
same,IC50,[18],> 10000 nM
same,IC50,[19],> 10000 nM
same,IC50,[20],> 10000 nM
same,IC50,[21],> 10000 nM
same,IC50,[22],> 10000 nM
same,IC50,[23],> 10000 nM
same,IC50,[24],> 10000 nM
same,IC50,[25],> 10000 nM
same,IC50,[26],> 10000 nM
same,IC50,[27],> 10000 nM
same,IC50,[28],> 10000 nM
same,IC50,[29],> 10000 nM
same,IC50,[30],> 10000 nM
same,IC50,[31],> 10000 nM
same,IC50,[32],> 10000 nM
same,IC50,[33],> 10000 nM
same,IC50,[34],> 10000 nM
same,IC50,[35],> 10000 nM
same,IC50,[36],> 10000 nM
same,IC50,[37],> 10000 nM
same,IC50,[38],> 10000 nM
same,IC50,[39],> 10000 nM
same,IC50,[40],> 10000 nM
same,IC50,[41],> 10000 nM
same,IC50,[42],> 10000 nM
same,IC50,[43],> 10000 nM
same,IC50,[44],> 10000 nM
same,IC50,[45],> 10000 nM
same,IC50,[46],> 10000 nM
same,IC50,[47],> 10000 nM
same,IC50,[48],> 10000 nM
same,IC50,[49],> 10000 nM
same,IC50,[50],> 10000 nM
same,IC50,[51],> 10000 nM
same,IC50,[52],> 10000 nM
